In patent EP0595557A1, “New substituted azetidinones as anti-inflammatory and antidegenerative agents” (MERCK & CO. INC., priority 1992, dated 1994):

Target: T1, Human Polymorphonuclear Leukocyte Elastase (Homo sapiens, UniProt P08246)
T1 construct: Crude extract of human polymorphonuclear leukocytes (PMN) containing elastase activity; from tissue; host or cells: human polymorphonuclear leukocytes (crude extract)
T1 sequence (P08246 30-267): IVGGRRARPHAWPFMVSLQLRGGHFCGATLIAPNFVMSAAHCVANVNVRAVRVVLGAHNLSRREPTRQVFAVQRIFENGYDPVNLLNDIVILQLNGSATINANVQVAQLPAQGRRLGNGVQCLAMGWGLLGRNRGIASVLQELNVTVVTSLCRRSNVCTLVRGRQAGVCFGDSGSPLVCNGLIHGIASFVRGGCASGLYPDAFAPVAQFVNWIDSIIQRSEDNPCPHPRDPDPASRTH
Experiment: Enzyme assay for inhibition of human polymorphonuclear leukocyte elastase via hydrolysis of Boc-AAPAN or Boc-AAPVN
Format: biochemical
Conditions: pH 7.5, second order rate constant for inactivation of the enzyme, expressed to the nearest thousand, read-out: Kobs/[I]
How it was run: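 Crude human PMN extract as enzyme source, with 0.2 mM Boc-AAPAN in 0.05M TES buffer pH 7.5. Inhibitors in DMSO were added to substrate before the extract, and rate was followed as ΔOD/min at 410 mµ. Values are kobs/I, the second-order inactivation rate constant (per mole per second).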

Going from CCC[C@@H](NC(=O)N1C(=O)C(CC)(CC)[C@@H]1Oc1ccc(C(=O)N(C)CCN2CCCCC2)cc1)c1ccc(C)cc1 [Compound 91] to CCC[C@@H](NC(=O)N1C(=O)C(CC)(CC)[C@@H]1Oc1ccc(C(=O)N(C)CCN2CCCCCC2)cc1)c1ccc(C)cc1 [Compound 122], the kinact/KI rises from 892000 M⁻¹ s⁻¹ to 2.9e+06 M⁻¹ s⁻¹ (3.3-fold).

Compared with CCC[C@@H](NC(=O)N1C(=O)C(CC)(CC)[C@@H]1Oc1ccc(C(=O)N(C)CCNC)cc1)c1ccc(C)cc1 [Compound 92], CCC[C@@H](NC(=O)N1C(=O)C(CC)(CC)[C@@H]1Oc1ccc(C(=O)N(C)CCN(C)C(=O)NC)cc1)c1ccc(C)cc1 [Compound 106] is 1.7-fold higher in kinact/KI: 1.45e+06 M⁻¹ s⁻¹ for the first, 2.49e+06 M⁻¹ s⁻¹ for the second.

Going from CCC[C@@H](NC(=O)N1C(=O)C(CC)(CC)[C@@H]1Oc1ccc(C(=O)NCCN2CCCC2)cc1)c1ccc(C)cc1 [Compound 94] to CCC[C@@H](NC(=O)N1C(=O)C(CC)(CC)[C@@H]1Oc1ccc(C(=O)NCCN2CCCCCC2)cc1)c1ccc(C)cc1 [Compound 121], the kinact/KI rises from 1.24e+06 M⁻¹ s⁻¹ to 2.07e+06 M⁻¹ s⁻¹ (1.7-fold).

CCC[C@@H](NC(=O)N1C(=O)C(CC)(CC)[C@@H]1Oc1ccc(C(=O)N(C)CCN2CCCC2)cc1)c1ccc(C)cc1 [Compound 95] and CCC[C@@H](NC(=O)N1C(=O)C(CC)(CC)[C@@H]1Oc1ccc(C(=O)N(CC)CCN2CCCCC2)cc1)c1ccc(C)cc1 [Compound 132] are within 1.5-fold of each other in kinact/KI: 1e+06 M⁻¹ s⁻¹ for the first, 1.24e+06 M⁻¹ s⁻¹ for the second.

CCC[C@@H](NC(=O)N1C(=O)C(CC)(CC)[C@@H]1Oc1ccc(C(=O)NCCn2cncn2)cc1)c1ccc(C)cc1 [Compound 96] and CCC[C@@H](NC(=O)N1C(=O)C(CC)(CC)[C@@H]1Oc1ccc(C(=O)NCCn2cnnn2)cc1)c1ccc(C)cc1 [Compound 101] are within 1.5-fold of each other in kinact/KI: 1.4e+06 M⁻¹ s⁻¹ for the first, 2.05e+06 M⁻¹ s⁻¹ for the second.

Compared with CCC[C@@H](NC(=O)N1C(=O)C(CC)(CC)[C@@H]1Oc1ccc(C(=O)NCCn2ccnc2)cc1)c1ccc(C)cc1 [Compound 97], CCC[C@@H](NC(=O)N1C(=O)C(CC)(CC)[C@@H]1Oc1ccc(C(=O)NCCn2ncnn2)cc1)c1ccc(C)cc1 [Compound 100] is 1.9-fold higher in kinact/KI: 1.07e+06 M⁻¹ s⁻¹ for the first, 2.01e+06 M⁻¹ s⁻¹ for the second.

CCC[C@@H](NC(=O)N1C(=O)C(CC)(CC)[C@@H]1Oc1ccc(C(=O)NCCN2CC3CCC(CC3)C2)cc1)c1ccc(C)cc1 [Compound 98] and CCC[C@@H](NC(=O)N1C(=O)C(CC)(CC)[C@@H]1Oc1ccc(C(=O)N(C)CCN2CC3CCC(CC3)C2)cc1)c1ccc(C)cc1 [Compound 103] are within 1.5-fold of each other in kinact/KI: 3.04e+06 M⁻¹ s⁻¹ for the first, 3e+06 M⁻¹ s⁻¹ for the second.

Going from CCC[C@@H](NC(=O)N1C(=O)C(CC)(CC)[C@@H]1Oc1ccc(C(=O)NCCN2CCC3(CCCCC3)CC2)cc1)c1ccc(C)cc1 [Compound 99] to CCC[C@@H](NC(=O)N1C(=O)C(CC)(CC)[C@@H]1Oc1ccc(C(=O)NCCN2CCS(=O)(=O)CC2)cc1)c1ccc(C)cc1 [Compound 109], the kinact/KI falls from 2.58e+06 M⁻¹ s⁻¹ to 1.28e+06 M⁻¹ s⁻¹ (2-fold).

First: CCCC(NC(=O)N1C(=O)C(CC)(CC)C1Oc1ccc(C(=O)NCC(=O)N2CCCC2C(=O)NCc2ccccc2)cc1)c1ccc(C)cc1 (centres unmarked) [Compound 102]
Second: CCC[C@@H](NC(=O)N1C(=O)C(CC)(CC)[C@@H]1Oc1ccc(C(=O)NCCN2CCN(C(=O)OCc3ccccc3)CC2)cc1)c1ccc(C)cc1 [Compound 117]
The kinact/KI of the first is 2.3-fold lower: 2.75e+06 M⁻¹ s⁻¹ for the first, 6.23e+06 M⁻¹ s⁻¹ for the second.

CCC[C@@H](NC(=O)N1C(=O)C(CC)(CC)[C@@H]1Oc1ccc(C(=O)N(C)CCc2c[nH]cn2)cc1)c1ccc(C)cc1 [Compound 104] and CCC[C@@H](NC(=O)N1C(=O)C(CC)(CC)[C@@H]1Oc1ccc(C(=O)N(C)CCc2ccccn2)cc1)c1ccc(C)cc1 [Compound 115] are within 1.5-fold of each other in kinact/KI: 2.39e+06 M⁻¹ s⁻¹ for the first, 2.27e+06 M⁻¹ s⁻¹ for the second.

CCC[C@@H](NC(=O)N1C(=O)C(CC)(CC)[C@@H]1Oc1ccc(C(=O)N(C)CCN(C)C(C)=O)cc1)c1ccc(C)cc1 [Compound 105] and CCC[C@@H](NC(=O)N1C(=O)C(CC)(CC)[C@@H]1Oc1ccc(C(=O)N(C)CCN(C)S(C)(=O)=O)cc1)c1ccc(C)cc1 [Compound 107] are within 1.5-fold of each other in kinact/KI: 2.4e+06 M⁻¹ s⁻¹ for the first, 2.53e+06 M⁻¹ s⁻¹ for the second.

First: CCC[C@@H](NC(=O)N1C(=O)C(CC)(CC)[C@@H]1Oc1ccc(C(=O)NCc2ccc(N(C)C)cc2)cc1)c1ccc(C)cc1 [Compound 110]
Second: CCC[C@@H](NC(=O)N1C(=O)C(CC)(CC)[C@@H]1Oc1ccc(C(=O)Nc2ccc(N(C)C)cc2)cc1)c1ccc(C)cc1 [Compound 113]
The kinact/KI of the first is 2.2-fold higher: 5.6e+06 M⁻¹ s⁻¹ for the first, 2.59e+06 M⁻¹ s⁻¹ for the second.

First: CCC[C@@H](NC(=O)N1C(=O)C(CC)(CC)[C@@H]1Oc1ccc(C(=O)Nc2cccc(N(C)C)c2)cc1)c1ccc(C)cc1 [Compound 111]
Second: CCC[C@@H](NC(=O)N1C(=O)C(CC)(CC)[C@@H]1Oc1ccc(C(=O)Nc2cccc(Cl)c2)cc1)c1ccc(C)cc1 [Compound 135]
The kinact/KI of the first is 11-fold higher: 2.29e+06 M⁻¹ s⁻¹ for the first, 201000 M⁻¹ s⁻¹ for the second.

CCC[C@@H](NC(=O)N1C(=O)C(CC)(CC)[C@@H]1Oc1ccc(C(=O)N(C)CCN2CCS(=O)(=O)CC2)cc1)c1ccc(C)cc1 [Compound 112] and CCC[C@@H](NC(=O)N1C(=O)C(CC)(CC)[C@@H]1Oc1ccc(C(=O)N(C)CCN2CCC(=O)CC2)cc1)c1ccc(C)cc1 [Compound 130] are within 1.5-fold of each other in kinact/KI: 1.6e+06 M⁻¹ s⁻¹ for the first, 2.3e+06 M⁻¹ s⁻¹ for the second.

Compared with CCC[C@@H](NC(=O)N1C(=O)C(CC)(CC)[C@@H]1Oc1ccc(C(=O)NCCc2nccn2Cc2ccccc2)cc1)c1ccc(C)cc1 [Compound 114], CCC[C@@H](NC(=O)N1C(=O)C(CC)(CC)[C@@H]1Oc1ccc(C(=O)N(CCN(C)C)Cc2ccccc2)cc1)c1ccc(C)cc1 [Compound 137] is 2.8-fold lower in kinact/KI: 3.85e+06 M⁻¹ s⁻¹ for the first, 1.38e+06 M⁻¹ s⁻¹ for the second.

Going from CCC[C@@H](NC(=O)N1C(=O)C(CC)(CC)[C@@H]1Oc1ccc(C(=O)N(C)C2CN3CCC2CC3)cc1)c1ccc(C)cc1 (some centres unmarked) [Compound 116] to CCC[C@@H](NC(=O)N1C(=O)C(CC)(CC)[C@@H]1Oc1ccc(C(=O)N(C)CCN2CCC(O)CC2)cc1)c1ccc(C)cc1 [Compound 129], the kinact/KI falls from 3.48e+06 M⁻¹ s⁻¹ to 1.99e+06 M⁻¹ s⁻¹ (1.7-fold).

CCC[C@@H](NC(=O)N1C(=O)C(CC)(CC)[C@@H]1Oc1ccc(C(=O)NC2CN(CC)N(CC)C2)cc1)c1ccc(C)cc1 [Compound 118] and CCC[C@@H](NC(=O)N1C(=O)C(CC)(CC)[C@@H]1Oc1ccc(C(=O)N(CC)CC)cc1)c1ccc(C)cc1 [Compound 128] are within 1.5-fold of each other in kinact/KI: 1e+06 M⁻¹ s⁻¹ for the first, 1.45e+06 M⁻¹ s⁻¹ for the second.

First: CCC[C@@H](NC(=O)N1C(=O)C(CC)(CC)[C@@H]1Oc1ccc(C(=O)N2CCC[C@H]2CN2CCCC2)cc1)c1ccc(C)cc1 [Compound 119]
Second: CCC[C@@H](NC(=O)N1C(=O)C(CC)(CC)[C@@H]1Oc1ccc(C(=O)NCCN2CCCC(O)C2)cc1)c1ccc(C)cc1 (some centres unmarked) [Compound 123]
The kinact/KI of the first is 1.8-fold higher: 2.69e+06 M⁻¹ s⁻¹ for the first, 1.53e+06 M⁻¹ s⁻¹ for the second.

Compared with CCC[C@@H](NC(=O)N1C(=O)C(CC)(CC)[C@@H]1Oc1ccc(C(=O)NCCN2CCC(O)CC2)cc1)c1ccc(C)cc1 [Compound 120, [S-(R+,S*)]-3,3-diethyl-2-[4-[[[2-(4-hydroxy-1-piperidinyl)ethyl]amino]carbonyl]phenoxy]-N-[1-(4-methyl-phenyl)butyl]-4-oxo-1-azetidine-carboxamide], CCC[C@@H](NC(=O)N1C(=O)C(CC)(CC)[C@@H]1Oc1ccc(C(=O)NCCN2CCC(O)C2)cc1)c1ccc(C)cc1 (some centres unmarked) [Compound 131] is 1.6-fold lower in kinact/KI: 1.73e+06 M⁻¹ s⁻¹ for the first, 1.11e+06 M⁻¹ s⁻¹ for the second.

Compared with CCC[C@@H](NC(=O)N1C(=O)C(CC)(CC)[C@@H]1Oc1ccc(C(=O)N(C)CCN2CCCC(O)C2)cc1)c1ccc(C)cc1 (some centres unmarked) [Compound 124], CCC[C@@H](NC(=O)N1C(=O)C(CC)(CC)[C@@H]1Oc1ccc(C(=O)N(C)CCN2CCC(O)C2)cc1)c1ccc(C)cc1 (some centres unmarked) [Compound 138] is 2-fold lower in kinact/KI: 1.96e+06 M⁻¹ s⁻¹ for the first, 960000 M⁻¹ s⁻¹ for the second.

CCC[C@@H](NC(=O)N1C(=O)C(CC)(CC)[C@@H]1Oc1ccc(C(=O)N(C)CCN(C)Cc2ccccc2)cc1)c1ccc(C)cc1 [Compound 125] and CCC[C@@H](NC(=O)N1C(=O)C(CC)(CC)[C@@H]1Oc1ccc(C(=O)N(C)CCN(C)Cc2cccnc2)cc1)c1ccc(C)cc1 [Compound 145] are within 1.5-fold of each other in kinact/KI: 2.05e+06 M⁻¹ s⁻¹ for the first, 2.88e+06 M⁻¹ s⁻¹ for the second.

Compared with CCC[C@@H](NC(=O)N1C(=O)C(CC)(CC)[C@@H]1Oc1ccc(C(=O)N(C)CCN2CCC(OCc3ccccc3)CC2)cc1)c1ccc(C)cc1 [Compound 126], CCC[C@@H](NC(=O)N1C(=O)C(CC)(CC)[C@@H]1Oc1ccc(C(=O)N(CCN2CCCCC2)Cc2ccccc2)cc1)c1ccc(C)cc1 [Compound 133] is 2.3-fold lower in kinact/KI: 3.48e+06 M⁻¹ s⁻¹ for the first, 1.52e+06 M⁻¹ s⁻¹ for the second.

Compared with CCC[C@@H](NC(=O)N1C(=O)C(CC)(CC)[C@@H]1Oc1ccc(C(=O)N(CCC)CCC)cc1)c1ccc(C)cc1 [Compound 127], CCC[C@@H](NC(=O)N1C(=O)C(CC)(CC)[C@@H]1Oc1ccc(C(=O)N(CCN(C)C)CCN(C)C)cc1)c1ccc(C)cc1 [Compound 143] is 1.9-fold higher in kinact/KI: 990000 M⁻¹ s⁻¹ for the first, 1.88e+06 M⁻¹ s⁻¹ for the second.

First: CCC[C@@H](NC(=O)N1C(=O)C(CC)(CC)[C@@H]1Oc1ccc(C(=O)Nc2ccc(F)cc2)cc1)c1ccc(C)cc1 [Compound 134]
Second: CCC[C@@H](NC(=O)N1C(=O)C(CC)(CC)[C@@H]1Oc1ccc(C(=O)NCCN2CCC[C@H]2CO)cc1)c1ccc(C)cc1 [Compound 141]
The kinact/KI of the first is 2.1-fold lower: 724000 M⁻¹ s⁻¹ for the first, 1.51e+06 M⁻¹ s⁻¹ for the second.

Going from CCC[C@@H](NC(=O)N1C(=O)C(CC)(CC)[C@@H]1Oc1ccc(C(=O)N(CCN2CCCCC2)Cc2cccnc2)cc1)c1ccc(C)cc1 [Compound 139] to CCC[C@@H](NC(=O)N1C(=O)C(CC)(CC)[C@@H]1Oc1ccc(C(=O)N(C)CCN2CCN(C(=O)OC(C)(C)C)CC2)cc1)c1ccc(C)cc1 [Compound 142], the kinact/KI rises from 1.19e+06 M⁻¹ s⁻¹ to 3.47e+06 M⁻¹ s⁻¹ (2.9-fold).

CCC[C@@H](NC(=O)N1C(=O)C(CC)(CC)[C@@H]1Oc1ccc(C(=O)NC(C)CCCN(CC)CC)cc1)c1ccc(C)cc1 (some centres unmarked) [Compound 140] and CCC[C@@H](NC(=O)N1C(=O)C(CC)(CC)[C@@H]1Oc1ccc(C(=O)N(CCN(CC)CC)CCN(CC)CC)cc1)c1ccc(C)cc1 [Compound 144] are within 1.5-fold of each other in kinact/KI: 1.36e+06 M⁻¹ s⁻¹ for the first, 1.51e+06 M⁻¹ s⁻¹ for the second.

Same assay, conditions: second order rate constant for inactivation of the enzyme, expressed to the nearest thousand; pH 7.5

In the case of CCC[C@@H](NC(=O)N1C(=O)C(CC)(CC)[C@@H]1Oc1ccc(C(=O)N(C)CCN2CC3CCC(CC3)C2)cc1)c1ccc(C)cc1 [Compound 108], the “Kobs/[I]” value is reported as 2,953,000 per mole per second.
